US6559160B1, “Compounds and methods for modulating cxcr3 function” (Chemocentryx, Inc., priority 1999, dated 2003)

Experiments:
CXCR3 = biological target: T1, CXCR3 (Homo sapiens, UniProt P49682); assay: CXCR3 binding assay: inhibition of 125I-IP-10 binding to CXCR3-expressing cells; conditions: concentration required to reduce binding of labeled IP-10 to the receptor by 50%, approx. 3 hours at 4° C.
T1 construct: CXCR3-expressing cells were prepared according to standard methods and used in most assays
T1 sequence (P49682 1-368): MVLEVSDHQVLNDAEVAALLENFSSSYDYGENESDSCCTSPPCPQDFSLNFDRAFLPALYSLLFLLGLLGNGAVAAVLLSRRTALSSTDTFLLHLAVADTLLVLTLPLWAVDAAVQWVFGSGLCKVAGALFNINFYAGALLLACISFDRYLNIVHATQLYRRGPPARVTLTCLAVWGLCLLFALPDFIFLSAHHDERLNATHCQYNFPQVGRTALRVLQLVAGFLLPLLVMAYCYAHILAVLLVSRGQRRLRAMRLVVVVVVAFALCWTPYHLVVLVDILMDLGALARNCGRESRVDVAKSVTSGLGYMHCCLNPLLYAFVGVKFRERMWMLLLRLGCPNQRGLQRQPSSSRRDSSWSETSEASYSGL
Procedure: Source plates of chemical libraries were obtained from commercial vendors and contained individual compounds at 5 mg/mL in DMSO, or in some instances, at 1 mg/mL. From these, multiple compound plates containing 10 compounds in each well were made, and these were diluted in 20% DMSO to a concentration of 50 μg/mL (10 μg/mL for those beginning at 1 mg/mL). An aliquot of 20 μL of each mixture was put into the test plates, which were stored frozen until use.
CXCR3-expressing cells were prepared according to standard methods and used in most assays. The cells were cultured in IMDM-5% FBS, and harvested when the concentration was between 0.5-1.0×10^6 cells/mL. The cells were centrifuged and resuspended in assay buffer (20 mM HEPES, 80 mM NaCl, 1 mM CaCl2, 5 mM MgCl2, and with 0.2% bovine serum albumin, pH 7.1) to a concentration of 5.6×10^6 cells/mL. Using a Multi-Probe automated system, 0.09 mL of cells was added to each well of the assay test plates containing the compounds, followed by 0.09 mL of ^125I-Ip-10 (from New England Nuclear) diluted in assay buffer (final concentration ˜25-100 pM, with ˜50,000 cpm per well). The final concentration of the compounds was 1-5 μg/mL each. The plates were sealed and incubated for approximately 3 hours at 4° C. on a shaker platform. (In some experiments radiolabeled MIG was used.) The assay plates were harvested using Packard filter plates, pre-soaked in PEI solution, on the vacuum harvest apparatus. Scintillation fluid (35 μL) was added to each of the wells, the plates were sealed and counted in a Top Count scintillation counter. Control wells contained either diluent only (for total counts) or excess IP-10 (1 μg/mL, for non-specific binding) and were used to calculate the percent of total inhibition for each set of compounds. Further tests on individual compounds were carried out in the same manner. IC50 values are those concentrations required to reduce the binding of labeled IP-10 to the receptor by 50%.
The binding of IP-10 or MIG to CXCR3 was first optimized by testing various pH and salt concentrations for their effect in a homologous competition assay. Maximum binding of radiolabeled MIG takes place under low salt (80 mM) conditions, as compared to normal salt (140 mM), while there is no difference between pH 7.1 and 7.4.

[1] = system: 5 other chemokine receptors on activated lymphocytes; assay: Signalling (calcium mobilization) by other chemokines on activated lymphocytes; format: cell-based, human
Procedure: Calcium mobilization assays were performed by labeling human peripheral blood lymphocytes (cultured in 10 ng/mL IL-2 for at least 12 days) with INDO-1 dye (45 min at room temperature), washing with PBS, and resuspending into flux buffer (HBSS with 1% fetal bovine serum). For each test, 1×10^6 cells were incubated at 37° C. in the cuvette of a PTI spectrometer, and the ratio of 400/490 nm emission was plotted over time (typically 2-3 minutes), with compounds added at 5 seconds, followed by IP-10 or other chemokines.

CCCCCC(=O)N(CCN(C)C)C(C)c1nc2ccccc2c(=O)n1-c1ccc(F)cc1 (stereo not shown) [Compound 1.1]
IC50 (CXCR3): > 5 µM

CCCCCCC(=O)N(CCN(C)C)C(C)c1nc2ccccc2c(=O)n1-c1ccc(F)cc1 (stereo not shown) [Compound 1.2]
IC50 (CXCR3): > 5 µM

CCCCCCC(=O)N(CCN(C)C)C(C)c1nc2ccccc2c(=O)n1-c1ccc(OC)cc1 (stereo not shown) [Compound 1.3]
IC50 (CXCR3): 0.8 to 5 µM

CCCCCCCC(=O)N(CCN(C)C)C(C)c1nc2ccccc2c(=O)n1-c1ccc(Br)cc1 (stereo not shown) [Compound 1.4]
IC50 (CXCR3): 0.8 to 5 µM

CCCCCCCC(=O)N(CCN(C)C)C(C)c1nc2ccccc2c(=O)n1-c1ccc(OC)cc1 (stereo not shown) [Compound 1.5]
IC50 (CXCR3): 0.8 to 5 µM

CCCCCCCC(=O)N(CCN(C)C)C(C)c1nc2ccccc2c(=O)n1-c1ccc(F)cc1 (stereo not shown) [Compound 1.6]
IC50 (CXCR3): 0.8 to 5 µM

CCCCCCCCC(=O)N(CCN(C)C)C(C)c1nc2ccccc2c(=O)n1-c1ccc(C)cc1 (stereo not shown) [Compound 1.7]
IC50 (CXCR3): > 5 µM

CCCCCCCCC(=O)N(CCN(C)C)C(C)c1nc2ccccc2c(=O)n1-c1ccc(OC)cc1 (stereo not shown) [Compound 1.9]
IC50 (CXCR3): ≤ 0.8 µM

CCCCCCCCC(=O)N(CCN(C)C)C(C)c1nc2ccccc2c(=O)n1-c1ccc(Cl)cc1 (stereo not shown) [Compound 1.10]
IC50 (CXCR3): ≤ 0.8 µM

CCCCCCCCCC(=O)N(CCN(C)C)C(C)c1nc2ccccc2c(=O)n1-c1ccc(F)cc1 (stereo not shown) [Compound 1.11]
IC50 (CXCR3): ≤ 0.8 µM | interference with signalling by other chemokines [1]: did not interfere with signalling by those chemokines

CCCCCCCCCC(=O)N(CCN(C)C)C(C)c1nc2ccccc2c(=O)n1-c1ccccc1 (stereo not shown) [Compound 1.12]
IC50 (CXCR3): > 5 µM

CCCCCCCCCCCC(=O)N(CCN(C)C)C(C)c1nc2ccccc2c(=O)n1-c1ccc(Cl)cc1 (stereo not shown) [Compound 1.13]
IC50 (CXCR3): 0.8 to 5 µM

CCCCCCCCCCCCCC(=O)N(CCN(C)C)C(C)c1nc2ccccc2c(=O)n1-c1ccc(F)cc1 (stereo not shown) [Compound 1.14]
IC50 (CXCR3): ≤ 0.8 µM

CCCCCCCCCCCCCC(=O)N(CCN(C)C)C(C)c1nc2ccccc2c(=O)n1-c1ccc(OC)cc1 (stereo not shown) [Compound 1.15]
IC50 (CXCR3): ≤ 0.8 µM

CCCCCCCCCC(=O)N(CCN(C)C)C(C)c1nc2ccc(OC)cc2c(=O)n1-c1ccc(OC)cc1 (stereo not shown) [Compound 4.1]
melting point: 124.2 °C

CCCCCCCCCC(=O)N(CCN(C)C)C(C)c1nc2ccc(C)cc2c(=O)n1-c1ccc(F)cc1 (stereo not shown) [Compound 4.4]
melting point: 121 °C

CCCCCCCCCC(=O)N(CCN(C)C)C(C)c1nc2ccc(Cl)cc2c(=O)n1-c1ccc(F)cc1 (stereo not shown) [Compound 4.5]
melting point: 122.9 °C

CCCCCCCCCC(=O)N(CCN(C)C)C(C)c1nc2c(OC)c(OC)c(OC)cc2c(=O)n1-c1ccc(F)cc1 (stereo not shown) [Compound 4.7]
melting point: 106.7 °C
